15 compounds from patent US20180042931A1 (Bayer Pharma Aktiengesellschaft, priority 2015, published 2018) can be followed below.

As a reminder, the IC50 is the point on the concentration scale where inhibition reaches its midpoint. A low value points to inhibition by little substance.

Test [1] has as its system constitutive active colorectal cancer cell (CRC) Wnt pathway. As to the kind of experiment: Cellular reporter assay, HCT116 cells stably transfected with Super TopFlash vector (HCT116-TOP), luciferase readout. Format: cell-based. The note with it: Homo sapiens, HCT-116, 36 hours incubation, luciferase expression, average or median values. The protocol: In order to discover and characterize small molecules which inhibit the constitutive active colorectal cancer cell (CRC) Wnt pathway, a cellular reporter assay was employed. The corresponding assay cell was generated by transfection of the colorectal cancer cell line HCT116 (ATCC, #CCL-247) with the Super TopFlash vector (Morin, Science 275, 1997, 1787-1790; Molenaar et al., Cell 86 (3), 1996, 391-399). The HCT116 cell line is cultivated at 37° C. and 5% CO2 in DMEM/F-12 (Life Technologies, #11320-074), supplemented with 2 mM glutamine, 20 mM HEPES, 1.4 mM pyruvate, 0.15% Na-bicarbonate and 10% foetal bovine serum (GIBCO, #10270), this cancer cell line is pathophysiological relevant since it carries a deletion of position S45 in the β-catenin gene, leading to constitutive active Wnt signaling. Stable transfectants were generated by cotransfection with pcDNA3 and selection of stable transfected cells with 1 mg/mL G418.
(§1) In preparation of the assay, the two cell lines were plated 24 hours before at 10000 cells per well of a 384 micro titre plate (MTP) in 30 μL growth medium. Selective inhibitory activity for small molecules on the mutated Wnt pathway was determined after parallel incubation of both (TOP and FOP) HCT116 reporter cell lines with a compound dilution series from 50 μM to 15 nM in steps of 3.16-fold dilutions in CAFTY buffer (130 mM NaCl, 5 mM KCl, 20 mM HEPES, 1 mM MgCl2, 5 mM NaHCO3, pH 7.4) containing 2 mM Ca^2+ and 0.01% BSA. The compounds were thereby serially prediluted in 100% DMSO and thereafter in addition 50 fold into the CAFTY compound dilution buffer (described above). From this dilution 10 μL were added to the cells in 30 μL growth medium and incubated for 36 hours at 37° C. and 5% CO2. Thereafter luciferase assay buffer (1:1 mixture of luciferase substrate buffer (20 mM Tricine, 2.67 mM MgSO4, 0.1 mM EDTA, 4 mM DTT, 270 μM Coenzyme A, 470 μM Luciferin, 530 μM ATP, ph adjusted to pH 7.8 with a sufficient volume of 5M NaOH) and Triton buffer (30 mL Triton X-100, 115 mL glycerol, 308 mg Dithiothreitol, 4.45 g Na2HPO4.2H2O, 3.03 g TRIS HCl, ad 1I H2O, pH 7.8) was added as equal volume to the compound solution on the cells to determine luciferase expression as a measure of Wnt signaling activity in a luminometer.
(In general: In a reporter assay the amount or activity of a reporter protein is the signal.)

The subject of test [2] is FOP control vector (randomized, non-functional sequence instead of functional TCF elements) in HCT116 cells. As to the kind of experiment: Control reporter assay, HCT116 cells stably transfected with FOP control vector (HCT116-FOP), luciferase readout. The note with it: Homo sapiens, HCT-116, 36 hours incubation, luciferase expression, dilution series up to 50 μM. It is filed as cell-based. The protocol:
In a parallel approach, HCT116 cells were cotransfected with the FOP control vector and pcDNA3. The FOP vector is identical to the TOP construct, but it contains instead of functional TCF elements a randomized, non-functional sequence. For this transfection a stable transfected cell line was generated as well.
as §1

In the case of `Nc1ncc(-c2ccc(NC(=O)c3ccc(OC(F)F)c(NC(=O)CN4CCOCC4)c3)cc2)cn1` [Example 28, N-[4-(2-aminopyrimidin-5-yl)phenyl]-4-(difluoromethoxy)-3-[(morpholin-4-ylacetyl)amino]benzamide], the results for the IC50 in test [1] and in test [2] were 226 nM and 39000 nM, respectively.
For the compound `O=C(CN1CCOCC1)Nc1cc(C(=O)Nc2ccc(-c3cncnc3)cc2)ccc1OC(F)(F)F` [Example 8, 3-[(morpholin-4-ylacetyl)amino]-N-[4-(pyrimidin-5-yl)phenyl]-4-(trifluoromethoxy)benzamide], the concentration for half-maximal inhibition (IC50) was 66.5 nM in test [1] and at least 50000 nM in test [2].
The matching figures for `O=C(CN1CCOCC1)Nc1cc(C(=O)Nc2ccc(-c3cn[nH]c3)cc2)ccc1OC(F)(F)F` [Example 6, 3-[(morpholin-4-ylacetyl)amino]-N-[4-(1H-pyrazol-4-yl)phenyl]-4-(trifluoromethoxy)benzamide]: 180 nM and at least 50000 nM.
For the compound `Cc1ncccc1-c1ccc(NC(=O)c2ccc(OC(F)(F)F)c(NC(=O)CN3CCOCC3)c2)cc1` [Example 16, N-[4-(2-methylpyridin-3-yl)phenyl]-3-[(morpholin-4-ylacetyl)amino]-4-(trifluoromethoxy)benzamide], the IC50 in test [1] was 117 nM; in test [2], 41500 nM.
Consider `O=C(CN1CCOCC1)Nc1cc(C(=O)Nc2ccc(-c3cccnc3)cc2)ccc1OC(F)F` [Example 27, 4-(difluoromethoxy)-3-[(morpholin-4-ylacetyl)amino]-N-[4-(pyridin-3-yl)phenyl]benzamide], for which the IC50 was 37 nM in test [1] and at least 50000 nM in test [2].
The matching figures for `COc1ccc(NC(=O)c2ccc(-c3cccnc3)cc2)cc1NC(=O)CN1CCOCC1` [Example 38, N-{4-methoxy-3-[(morpholin-4-ylacetyl)amino]phenyl)-4-(pyridin-3-yl)benzamide]: 10900 nM and at least 50000 nM.
For `O=C(CN1CCOCC1)Nc1cc(C(=O)Nc2ccc(-c3cccnc3)cc2)ccc1OC(F)(F)F` [Example 18, 3-[(morpholin-4-ylacetyl)amino]-N-[4-(pyridin-3-yl)phenyl]-4-(trifluoromethoxy)benzamide], the results for the IC50 in test [1] and in test [2] were 78.7 nM and at least 50000 nM, respectively.
Regarding `Nc1ccc(-c2ccc(NC(=O)c3ccc(OC(F)(F)F)c(NC(=O)C4(N5CCOCC5)CC4)c3)cc2)cn1` [Example 21, N-[4-(6-aminopyridin-3-yl)phenyl]-3-({[1-(morpholin-4-yl)cyclopropyl]carbonyl}amino)-4-(trifluoromethoxy)benzamide], the values for the IC50 in test [1] and in test [2] were 4.55 nM and 46500 nM, respectively.
In the case of `O=C(Nc1ccc(-c2cccnc2F)cc1)c1ccc(OC(F)(F)F)c(NC(=O)C2(N3CCOCC3)CC2)c1` [Example 20, N-[4-(2-fluoropyridin-3-yl)phenyl]-3-({[1-(morpholin-4-yl)cyclopropyl]carbonyl}amino)-4-(trifluoromethoxy)benzamide], the figures for the 50% inhibitory concentration (IC50) in test [1] and in test [2] were 3.15 nM and at least 50000 nM, respectively.
Take `Nc1ccc(-c2ccc(NC(=O)c3ccc(OC(F)F)c(NC(=O)CN4CCOCC4)c3)cc2)cn1` [Example 29, N-[4-(6-aminopyridin-3-yl)phenyl]-4-(difluoromethoxy)-3-[(morpholin-4-ylacetyl)amino]benzamide]: the 50% inhibitory concentration (IC50) in test [1] was 48.8 nM; in test [2], at least 50000 nM.
With `Nc1ncc(-c2ccc(NC(=O)c3ccc(Cl)c(NC(=O)C4(N5CCOCC5)CC4)c3)cc2)cn1` [Example 23, N-[4-(2-aminopyrimidin-5-yl)phenyl]-4-chloro-3-({[1-(morpholin-4-yl)cyclopropyl]carbonyl}amino)-benzamide], the concentration for half-maximal inhibition (IC50) is 26.2 nM in test [1] and at least 50000 nM in test [2].
Take `O=C(CN1CCOCC1)Nc1cc(C(=O)Nc2ccc(-c3cnc(C(F)(F)F)nc3)cc2)ccc1OC(F)(F)F` [Example 12, 3-[(morpholin-4-ylacetyl)amino]-4-(trifluoromethoxy)-N-{4-[2-(trifluoromethyl)pyrimidin-5-yl]phenyl}benzamide]: the IC50 was determined as 2660 nM in test [1] and 32000 nM in test [2].
Take `CN1CCN(CC(=O)Nc2cc(C(=O)Nc3ccc(-c4cccnc4)cc3)ccc2OC(F)(F)F)CC1` [Example 30, 3-{[(4-methylpiperazin-1-yl)acetyl]amino}-N-[4-(pyridin-3-yl)phenyl]-4-(trifluoromethoxy)benzamide]: the results for the IC50 in test [1] and in test [2] were 31.3 nM and 38500 nM, respectively.
With `O=C(CN1CCOCC1)Nc1cc(C(=O)Nc2ccc(-c3cccnc3F)cc2)ccc1OC(F)(F)F` [Example 4, N-[4-(2-fluoropyridin-3-yl)phenyl]-3-[(morpholin-4-ylacetyl)amino]-4-(trifluoromethoxy)benzamide], the IC50 in test [1] was 14.8 nM; in test [2], at least 50000 nM.
Regarding `Nc1ncc(-c2ccc(NC(=O)c3ccc(OC(F)(F)F)c(NC(=O)CN4CCOCC4)c3)cc2)cn1` [Example 3, N-[4-(2-aminopyrimidin-5-yl)phenyl]-3-[(morpholin-4-ylacetyl)amino]-4-(trifluoromethoxy)-benzamide], the IC50 was 49 nM in test [1] and at least 50000 nM in test [2].
